Assay results: article PMC10461969 (bioRxiv, 2023)
Read-outs that look alike come from different tables or passages of the source.

What was measured:
SIRT5 [1] = biological target: T1, SIRT5 (Homo sapiens, UniProt Q9NXA8); settings: read-out: IC50 Pub., Succinyl; cited from earlier work
T1 sequence (Q9NXA8 37-310): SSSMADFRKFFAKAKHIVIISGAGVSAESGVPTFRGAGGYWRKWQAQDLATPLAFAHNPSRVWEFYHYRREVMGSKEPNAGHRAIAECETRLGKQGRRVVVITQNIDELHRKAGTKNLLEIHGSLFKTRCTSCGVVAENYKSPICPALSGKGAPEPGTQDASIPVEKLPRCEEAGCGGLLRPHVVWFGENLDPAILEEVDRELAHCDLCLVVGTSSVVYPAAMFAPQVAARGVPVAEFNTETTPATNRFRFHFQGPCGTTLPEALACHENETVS

SIRT5 [2] = biological target: T1, SIRT5; test: SIRTify cell-free inhibitor assay, SIRT5; settings: for IC50: 250 μM NAD+
SIRT5 [3] = biological target: T1, SIRT5; test: SIRTify in live; assay type: cell-based; settings: intact KG1a-LgBiT cells with furimazine
SIRT5 [4] = biological target: T1, SIRT5; test: SIRTify in live; assay type: cell-based; settings: intact HepG2-LgBiT cells with furimazine
Sirt5 [5] = biological target: T2, Sirt5 (Danio rerio, UniProt Q6DHI5); test: Endogenous Sirt5 desuccinylation activity in zebrafish embryos; assay type: in vivo, zebrafish (Danio rerio); settings: embryos injected with LgBiT and peptide; endurazine
T2 sequence (Q6DHI5 33-305): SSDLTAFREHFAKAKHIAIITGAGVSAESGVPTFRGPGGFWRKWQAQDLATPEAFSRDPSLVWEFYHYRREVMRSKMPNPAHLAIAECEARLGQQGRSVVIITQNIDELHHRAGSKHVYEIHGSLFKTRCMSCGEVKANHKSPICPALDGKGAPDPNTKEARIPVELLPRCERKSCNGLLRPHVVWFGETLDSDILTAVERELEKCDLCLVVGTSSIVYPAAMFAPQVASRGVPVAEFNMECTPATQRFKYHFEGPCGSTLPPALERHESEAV

Row | Compound | IC50 (SIRT5 [1]) [nM] | lower IC50 for deglutarylase activity compared to desuccinylase activity (SIRT5 [2]) | IC50 (SIRT5 [2]; Glutaryl substrate (deglutarylase activity)) [nM] | IC50 (SIRT5 [2]; Succinyl substrate (desuccinylase activity)) [nM] | luminescence versus peptide concentration (cell permeability) (SIRT5 [3]) | luminescence versus peptide concentration (cell permeability) (SIRT5 [4]) | luminescence over 90 minutes (endogenous desuccinylation) (Sirt5 [5])
1 | O=C(O)CCNC(=S)NCCCC[C@H](NS(=O)(=O)c1cccc(F)c1)C(=O)N[C@@H](Cc1c[nH]c2ccccc12)C(=O)NC1CCC1 | 110 | approximately 3 fold | 47 ± 2 | 102 ± 8 |  |  | 
2 | CC[C@H](C)[C@H](NC(=O)[C@H](CCCCN)NC(=O)[C@H](CCCCN)NC(=O)[C@H](Cc1ccccc1)NC(=O)[C@H](CC(C)C)NC(=O)[C@H](CCCNC(=N)N)NC(=O)[C@H](Cc1c[nH]c2ccccc12)NC(=O)CNC(=O)[C@H](CO)NC(=O)[C@@H](N)C(C)C)C(=O)N[C@@H](CO)C(=O)N[C@@H](CCCNC(=N)N)C(=O)N[C@@H](CCCNC(=N)N)C(=O)N[C@@H](CCCNC(=N)N)C(=O)N[C@@H](CCCNC(=N)N)C(=O)O [p86-R4] |  |  |  |  | directly proportional to p86-R4 concentration | directly proportional to p86-R4 concentration | 
3 | H2N-VSGWRLF(KGlut)(KGlut)ISRRRR-OH [p86-Glutaryl8,9-R4] |  |  |  |  | much lower signal | much lower signal | 
4 | H2N-VSGWRLF(KSuc)(KSuc)ISRRRR-OH [p86-Succinyl8,9-R4] |  |  |  |  | much lower signal | much lower signal | slight increase in luminescence
